The text below walks through data of patent US20250325567A1, “COADMINISTRATION OF POLYC[…] AMINE/AMIDE A[…] ENHANCE EFFICACY AGAINST PAIN” (University of Connecticut, priority 2024, published 2025).

Entries after “also recorded” stand apart in the source; their conditions may differ.

The nature of series [1]: Solubility study at different pHs. The format is physicochemical. The note with it: 1 mg in 1 mL of water and ethanol, pH 1 to pH 12. As to the method:
A solubility study was conducted on the Dicannabidiol adipate at different pHs. Twelve vials were prepared by placing 1 mg of the dimer in 1 mL of water and ethanol of different pH, from pH 1 to pH 12. […] The hypothesis for the dimer being soluble in basic water is due to the bonding of the base with the phenolic oxygen of the dimer, thus producing the salt and easily solubilizing in water. […] Adipic acid is widely used in food and medicinal applications and is considered compatible and safe in the human body.

Series [2] can be described thus: Degradation study: thermal and UV light. The format is physicochemical. As to the method:
A degradation study was conducted in two parts: thermal degradation and UV light degradation. In the thermal degradation study, the Dicannabidiol adipate was heated to 175° C. in aerobic and anaerobic conditions and the changes were monitored by 1H NMR spectroscopy. In the UV light exposure study, a sample of Dicannabidiol adipate was kept under environmental conditions and UV light for several days and was constantly monitored by 1H NMR spectroscopy. From the results of the two experiments, it was concluded that the Dicannabidiol adipate is stable against the degradation caused from heat and UV exposure. […] This limits its misuse and abuse. Further, this indicates there will be no need to refrigerate the CBD-adipate dimer drug, and less issues, compared to CBD, with its shipping/handling.

For the next series, the system named is F-11 (neuronal) cells. The series can be described thus: Dose dependent cytotoxicity towards F-11 neuronal cells. Format: cell-based. The note with it: F11 cells, 24 hour incubation; for cytotoxicity: up to 20 μM. As to the method: FIG. 4 Dose dependent cytotoxicity of Dicannabidiol (diCBD) adipate and AM1241 towards F-11 (neuronal) cells after 24 hour incubation.

Series [3] has as its system activated bone marrow macrophages. Description: Anti-inflammatory response, pro-inflammatory marker gene expression. The format is cell-based. The note with it: for IL-1B gene expression / IL-6 gene expression / Nos2 gene expression / TNF-α gene expression: 20 μM. The text has this:
FIG. 5 Anti-inflammatory efficacy of Dicannabidiol (diCBD) adipate and AM1241 towards inflamed bone marrow macrophages.
AM1241 was used as comparison due to its commercial availability.

Another series relates to rat osteoarthritis model. The series can be described thus: Rat osteoarthritis model (monoiodo acetate), mechanical allodynia. Format: in vivo.

Description for rat osteoarthritis model: Briefly, baseline behavioral measurements were quantified prior to induction of osteoarthritis. Monoiodo acetate was used to induce osteoarthritis via intra-articular injection into the rear right knee joint followed 24 hours later by a single intra-articular injection of the designated treatment group (FIG. 9).

Turning to `C=C(C)[C@@H]1CCC(C)=C[C@H]1c1c(O)cc(CCCCC)cc1OC(=O)CCCCC(=O)Oc1cc(CCCCC)cc(O)c1[C@@H]1C=C(C)CC[C@H]1C(=C)C` [Dicannabidiol adipate], the “solubility in acidic conditions” value in series [1] (acidic) is listed as “not soluble”. Besides, in series [1] (basic), the “solubility in basic pH” value is given as “solubilizes”. The “stability against degradation caused from UV exposure” value in series [2] (environmental conditions and UV light for several days, monitored by 1H NMR) is “stable”. Besides, the “stability against degradation caused from heat” value in series [2] (heated to 175° C., aerobic and anaerobic, monitored by 1H NMR) is given as “stable”. Besides, the “degradation into psychoactive molecules such as THC” value in series [2] (thermal) was “does not degrade”. In addition, the cell viability entry in the series with F-11 (neuronal) cells (20 μM) was “above 80%”. Further, the cytotoxicity result in the series with F-11 (neuronal) cells was “minimal cytotoxicity; also recorded: no cytotoxicity; also recorded: minimal toxicity”. Further, in the series with F-11 (neuronal) cells (listed as CBD-adipate dimer), the cytotoxicity entry is “minimal dose dependent cell toxicity”. Besides, in series [3], the “anti-inflammatory effect in vitro” value is recorded as “potent anti-inflammatory effect”, the IL-1B gene expression result is given as “significantly downregulate; also recorded: significant reduction”, the IL-6 gene expression entry is given as “significantly downregulate; also recorded: significant reduction” and the Nos2 gene expression result is reported as “significantly downregulate; also recorded: significant reduction”. For the same compound, the TNF-α gene expression result in series [3] is “Neither of these drugs showed any significant effect”.
Turning to `CCCN1CCCC[C@H]1C(=O)Nc1c(C)cccc1C` [Ropivacaine], the “pain level after the anesthetic action, versus initial pain” value in the series with rat osteoarthritis model (after drug is no longer active) was “more pain”. Besides, in the series with rat osteoarthritis model (rat model of osteoarthritis), the pain free duration turned out to be 2 days.
As for `CN1CCCCC1Cn1cc(C(=O)c2cc([N+](=O)[O-])ccc2I)c2ccccc21` (centres unmarked) [AM1241, reference compound], the cytotoxicity result in the series on F-11 (neuronal) cells is reported as “significantly increased cytotoxicity”. In series [3], the IL-1B gene expression result is on record as “significantly downregulate”, the IL-6 gene expression entry is “significantly downregulate”, the Nos2 gene expression entry was “significantly downregulate” and the TNF-α gene expression entry is “Neither of these drugs showed any significant effect”.
